Earlier results as cited in US20220308074A1, “QUANTIFICATION METHOD OF VITAMIN D DERIVATIVE, ENZYME FOR QUANTIFICATION, COMPOSITION FOR QUANTIFICATION, KIT FOR QUANTIFICATION, ELECTRODE, SENSOR CHIP, AND SENSOR” (KIKKOMAN CORPORATION, priority 2019, published 2022).
Like-named read-outs stand apart in the source and are kept apart here.

half-life in the blood (in vivo) | Substance | half-life in the blood (blood)
– | 1,25-dihydroxyvitamin D | about 15 hours
2-3 weeks | 25-hydroxyvitamin D | –
